Results from ChEMBL document CHEMBL3507680, “University of Dundee, Gates Library screen for HepG2 cell viability”.

Assay: Human HepG2 cell viability assay in 384 well format
Type: toxicity, cell-based
Parameters: dose 125 nL, time 70.5 hour; cytotoxicity at 70.5 h: concentration not given beside the values
Conditions: HepG2 cells, read-out: Inhibition

SMILES | cytotoxicity at 70.5 h
Cc1ccc(C(=O)N2CCC3(CCCCC3)C2)c(=O)[nH]1 | -105%
O=S1(=O)C[C@@H]2[C@H](C1)N(Cc1cc(Cl)cc(Cl)c1)CCN2CCO | -1.4%
CN(C)C(=O)C1CN(Cc2ccc(C#N)cc2)c2ccccc2O1 (stereo not given) | 4.19%
CC(NC(=O)CCCC(=O)c1cccs1)c1nnc2n1CCC2 (stereo not given) | -9.34%
Cc1nc(C(C)C)ncc1C(=O)N1CCC(c2ccccc2C(=O)O)C1 (stereo not given) | -3.24%
Cc1nn2cccnc2c1C(=O)N1CCCC(n2cccn2)C1 (stereo not given) | 17.9%
Cc1ccc(-n2ncc(C(=O)NCC3CCS(=O)(=O)C3)c2C)cc1 (stereo not given) | -4.72%
CN(CCc1ccccc1)c1cnn(CC(=O)N2CCSCC2)c(=O)c1 | -3.48%
O=C(c1cc(=O)c(OCc2ccccc2)co1)N1CCSCC1 | -18.7%
CC1CCCN(C(=O)c2occc2COc2cccc(C#N)c2)C1 (stereo not given) | 4.5%
Cn1nnc2cc(C(=O)N3CCC(Nc4cccnn4)CC3)ccc21 | -15.7%
CC(O)CN1CCN(C(=O)CCOC(C)C)CC1 (stereo not given) | -3.79%
O=C(NCCc1c[nH]cn1)c1ccc(S(=O)(=O)NC2CCCC2)cc1 | -1.62%
CCc1cc(NCCNC(=O)c2cccnc2)n2nc(C)c(C)c2n1 | 21%
COc1ccccc1CC(=O)N1CCCC(n2nc(C)nc2C)C1 (stereo not given) | -13%
O=C(C1CCOCC1)N1CCCC1c1cncc(CN2CCCC2)n1 (stereo not given) | -0.0308%
Cn1ccnc1CN1CCC2(CC1)CN(c1ccccc1)C(=O)CO2 | 4.73%
c1ccc(-c2ncc(CN3CCCCC3CCn3cccn3)cn2)nc1 (stereo not given) | -4.71%
NC(=O)CN1CCC(c2cccc(Oc3ccccc3)n2)CC1 | -1.34%
CN1CCN(CC2CC2)C(=O)C12CCN(C(=O)c1ccnnc1)CC2 | -5.46%
CN(C)CCN1CCO[C@@H]2CN(C(=O)c3cccs3)CC[C@@H]2C1 | -16.4%
CN(C)C(=O)C1(C)CN(Cc2cn(C)c3ccccc23)CCO1 (stereo not given) | -4.04%
Fc1cccc(C2(CNC3CCCNC3)CCOCC2)c1 (stereo not given) | -1.46%

SMILES | cytotoxicity at 70.5 h
COc1cccc(CNC(Cc2cccs2)c2nc(C)c(C)s2)c1OC (stereo not given) | -1.23%
COc1ccc2c(c1)s/c(=N\C(=O)CSCC(=O)Nc1nccs1)n2C | 16.4%
O=C1CCC2(CCN(c3ncc(F)cn3)CC2)N1Cc1ccncc1 | 7.51%
Cc1ccnc(N2CCCC(c3noc(C(C)C)n3)C2)n1 (stereo not given) | 6.3%
Cc1ccc(-c2n[nH]cc2CN(Cc2nccn2C)C(C)C)cc1C | -5.49%
CS(=O)(=O)c1ccc(Cl)c(C(=O)NCCC2=CCCCC2)c1 | 32.9%
CCn1cnnc1CNS(=O)(=O)N1CCCC1c1ccco1 (stereo not given) | -9.43%
CC(O)(CN1CCC(O)CC1)c1cccc(C(F)(F)F)c1 (stereo not given) | -14.5%
Cc1cc(C)c2[nH]c(=O)c(CN3CCC(O)(CN(C)C)C3)cc2c1 (stereo not given) | -15.6%
CCSCCNc1nc2c(s1)c(C)nn2C | -14.5%
N#Cc1ccc(N2CCN(C(=O)c3cc(C4CC4)[nH]n3)CC2)c(F)c1 | -8.69%
CN(C)C[C@]12COC[C@H]1CN(Cc1ccc3c(c1)OCO3)C2 | -2.79%
Cc1cc(C)cc(N(CCC#N)C(=O)CN2CCCC2c2cccs2)c1 (stereo not given) | 25.9%
Cc1nc(NC(=O)NC2CC(=O)N(C)C2)nn1C (stereo not given) | 7.5%
CC(Cc1c(F)cccc1F)NC(=O)CSCC(N)=O (stereo not given) | 12.1%
Cn1nc(CNC(=O)c2ccc(OC(F)(F)F)cc2)c2c1CCOC2 | 2.03%
COc1cccc(N2CCN(CC[C@H](O)c3ccccc3)CC2=O)c1 | -10.7%
CN(C)CCn1c2c(ccc1=O)CC(NCc1cnn(C)c1)CC2 (stereo not given) | -8.72%
Cc1cnc(N2Cc3nccn3CC(Cn3nc(C)nc3C)C2)nc1 (stereo not given) | 0.499%
COCC(=O)N1CCC(Cc2nccnc2-c2c(C)n[nH]c2C)C1 (stereo not given) | 12.4%
CCN(Cc1ccncc1)C(=O)c1cn(CC2CCCNC2)nn1 (stereo not given) | -17.4%
Cn1ccnc1COc1ccc(COC(=O)C2CCCO2)cc1 (stereo not given) | 3.75%
COc1ccc(-c2csc(-c3cccc(C(=O)O)c3)n2)cc1OC | -9.98%

SMILES | cytotoxicity at 70.5 h
CC(C)CC(=O)Nc1ccc2c(c1)ncn2CC(=O)NCCN(C)C | -6.17%
O=C(COCC1CC1)N1CCCC1c1nc(-c2ccccc2F)c[nH]1 (stereo not given) | 2.15%
CN(Cc1ccon1)C(=O)C1CC(=O)N(Cc2cccnc2)C1 (stereo not given) | -7.61%
Cc1cc(C(=O)N(C)S(=O)(=O)C(C)C)ccc1F | -4.29%
O=C1CC2(CCCC2)CC(=O)N1Cc1ncccn1 | 19.8%
CCC(=O)N1CCc2[nH]cnc2C12CCN(C(=O)c1snnc1C)CC2 | -10.6%
CCOCc1nc2c(c(N(C)Cc3ccsc3)n1)CCNCC2 | -3.56%
CC(=O)c1c(N(C)C)ccnc1C(F)(F)F | -6.51%
CCc1nccn1C1CCCN(C(=O)c2ccc3c(c2)OCCO3)C1 (stereo not given) | -9.17%
CN(C)C(=O)c1ccc(C(C(=O)O)N(C)Cc2ccccc2Cl)cc1 (stereo not given) | -8.81%
Cc1cc(-c2cnc(NC3CC3)nc2-c2ccc(C)o2)on1 | -9.8%
CC(=O)Nc1ccc(SCC(O)COCc2ccccc2)cc1 (stereo not given) | -12.4%
O=C(CN1CCCC1c1nc(-c2ccccc2)no1)N1CCOCC1 (stereo not given) | -4.9%
Cn1c(N)nnc1SCc1cc(Br)ccc1Cl | -10.9%
CN(Cc1ccsc1)C(=O)CN1CCOC(Cn2cncn2)C1 (stereo not given) | -1.49%
COCc1noc(CN2CC(=O)N(C)c3ccccc3C2=O)n1 | 0.208%
Cc1nc(N2CCC(C(O)c3nccn3C)CC2)c2cccnc2n1 (stereo not given) | 18.9%
CCS(=O)(=O)N1C[C@H]2CC[C@](O)(c3ccc(C)cc3)[C@H]2C1 | 2.5%
c1ccc(CSc2nnc(C3CC3)s2)nc1 | -7.57%
COCCC(=O)N1CCCC1c1nc(O)cc(-c2ccccn2)n1 (stereo not given) | -5.06%
O=C(c1ccccc1N1CCOCC1)N1CCCC1Cn1cccn1 (stereo not given) | -4.2%
O=C(NCCc1cccnc1)c1nc2c(s1)CCCN2C(=O)C1CC1 | -7.13%
CCN(CC)c1ncc(CNCC2CCCn3ccnc32)s1 (stereo not given) | 8.16%

SMILES | cytotoxicity at 70.5 h
O=C(c1ccc(C2CCCN2)s1)N1CCC2(CCCO2)CC1 (stereo not given) | -6.68%
COc1ccc(OC)c(CNC(=O)N2CCC(n3cncn3)CC2)c1 | 35%
COc1ccc(Cl)cc1CS(=O)(=O)Cc1nc(C)no1 | 15.2%
CC(C)Cc1ncc(CNc2cnccc2CO)s1 | -1.94%
CO[C@H]1CC[C@H]2[C@H]1OCCN2CCOCc1ccccc1 | -11.7%
CC(C)N1Cc2c(C(=O)N3CCOCC3)nn(C)c2C1 | -13.7%
CC(C)c1nc2c(n1C)CCN(Cc1nc(-c3ccco3)no1)C2 | -7.27%
COc1cccc(NC(=O)NC(C)c2ccc3c(c2)CC(=O)N3)c1 (stereo not given) | -3.09%
CCc1ccsc1C(=O)NC(C#N)CC (stereo not given) | -5.37%
CC(C)CC(NC(=O)c1cnn(C)c1)C(=O)Nc1cc[nH]n1 (stereo not given) | 0.0249%
CCOc1ccc(C(=O)NCc2ccnc(N3CCN(C)CC3)c2)cn1 | -7.61%
Cc1noc(C)c1CN(C)Cc1csc(-c2ccc(C(C)C)cc2)n1 | 19.9%
O=C(O)C(c1ccc2[nH]ccc2c1)N1CCOCC1 (stereo not given) | 9.07%
Cc1nc[nH]c1C(=O)N1CCC2(CN(C)C(=O)O2)C1 (stereo not given) | -7.68%
CC(=O)NCC1CCN(C(=O)NCCOc2ccc3c(c2)CCC3)CC1 | -11.5%
NCC1Cc2cc(-c3nccc(N4CCC(O)CC4)n3)cc(Cl)c2O1 (stereo not given) | 5.41%
CCc1ccc(C(=O)N2CCN(CCO)CC2)o1 | -1.18%
COC(=O)N1CCCN(Cn2nc(C)c(Br)c2C)CC1 | 31.2%
O=C(Cc1ccc2c(c1)OCCO2)NCc1ccc(-n2cncn2)nc1 | -2.42%
CN(C)Cc1cc(=O)n2c(n1)CN(CC1CCOCC1)CCC2 | -10.5%
CCn1nccc1CNC(=O)C1CCCCC1 | -0.635%
O=C(NCCC1=CCCCC1)C1CCN(c2ccc3nncn3n2)CC1 | 3.11%
COc1ccc2nnc(CCCC(=O)NCc3cccn3C)n2n1 | 6.5%

SMILES | cytotoxicity at 70.5 h
Cc1cc(CNc2cccc(Cl)c2C)no1 | -17.1%
Clc1snnc1CN1CCCC(Cn2cncn2)C1 (stereo not given) | 14.5%
COc1cccc(CNCc2cccnc2)c1 | 9.83%
Cc1ccc(SCCN(C)C(=O)c2cn([C@H]3CC[C@@H](N)CC3)nn2)cc1 | 16.5%
c1ncn(CC2CN(Cc3nc(-c4ccsc4)no3)CCO2)n1 (stereo not given) | -6.98%
COc1cccc(OCC(=O)N2CCOc3ccncc32)c1 | 13.2%
Cc1nc(C(=O)NCCS(=O)(=O)N2CCCC2)cs1 | 13.7%
CCCN1CCC(c2cc(CCOc3ccc(C(F)(F)F)cc3)[nH]n2)C1 (stereo not given) | 0.882%
CN1CC(=O)N(c2cnn(C)c2)CC12CCN(C(=O)c1ccsc1)C2 (stereo not given) | -7.55%
COc1ccc(OCCNCc2c(C)nn(C)c2N(C)C)cc1 | 31.1%
CC(C)(C)n1nc(C(=O)NC2CCN(CC(N)=O)CC2)cc1C1CC1 | -11.7%
COc1ccc(-n2ccc(C(=O)NCCN3CCCCCC3)n2)cc1 | -2.62%
CN(C)[C@@H]1CO[C@H](CNC(=O)Nc2ccccc2)[C@H]1O | -1.04%
Cc1ccc(N2CCO[C@H]3[C@H](OCC(=O)N4CCCC4)CC[C@@H]32)cc1 | -1.99%
CCc1c(C)nc2n(c1=O)CC(C(=O)Nc1sccc1C(=O)OC)CS2 (stereo not given) | -6.34%
CS(=O)(=O)CCn1ccc(NC(=O)CCc2cccc(F)c2)n1 | -3.41%
CC(C)Oc1cccc(CC(=O)NC2CCN(CC(N)=O)CC2)c1 | -10.1%
COCCC(=O)Nc1ccnc(Oc2ccccc2)c1 | 2.24%
Cc1nc(CN2CCCN(C(=O)C(C)OCC3CC3)CC2)cs1 (stereo not given) | -8.36%
CCc1nccn1CCCNc1nccc(-c2c(C)nn(C)c2C)n1 | -16.7%
Cc1nn(C)c(N2CCOCC2)c1CNC1CCOc2ccccc21 (stereo not given) | -3.07%
N#Cc1ccc(CN2CCCC2Cn2cccn2)cc1 (stereo not given) | 2.25%
Cc1nc(C)c(C(=O)N2Cc3ccccc3OCC2CN(C)C)o1 (stereo not given) | 1.45%
